{"source": "ChEMBL document CHEMBL5576065", "about": "“Identification of highly potent and selective HTRA1 inhibitors” (Bioorg Med Chem Lett, 2024)", "key": {"[1]": {"biological_target": "T1, Serine protease HTRA1 (Homo sapiens, UniProt Q92743)", "T1 sequence (Q92743 whole entry)": "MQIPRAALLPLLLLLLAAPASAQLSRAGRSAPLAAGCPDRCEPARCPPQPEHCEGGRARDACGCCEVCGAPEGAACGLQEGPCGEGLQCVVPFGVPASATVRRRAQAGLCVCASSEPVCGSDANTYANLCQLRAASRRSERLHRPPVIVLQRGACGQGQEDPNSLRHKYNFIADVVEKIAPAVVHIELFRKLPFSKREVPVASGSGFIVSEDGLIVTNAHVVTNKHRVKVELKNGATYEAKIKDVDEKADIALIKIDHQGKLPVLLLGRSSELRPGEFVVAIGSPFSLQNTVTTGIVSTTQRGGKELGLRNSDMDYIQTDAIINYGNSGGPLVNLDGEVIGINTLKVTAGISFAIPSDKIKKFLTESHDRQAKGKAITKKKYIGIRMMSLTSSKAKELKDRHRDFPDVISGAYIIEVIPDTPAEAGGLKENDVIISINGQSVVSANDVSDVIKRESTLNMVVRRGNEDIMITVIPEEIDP", "test": "Inhibition of HTRA1 (unknown origin)"}, "[2]": {"biological_target": "T1, Serine protease HTRA1", "test": "Inhibition of HTRA1 (unknown origin) assessed as residual activity at 1 uM relative to control"}, "[3]": {"biological_target": "Chymotrypsin (Homo sapiens) (UniProt Q99895+P17538+P40313+Q6GPI1)", "test": "Inhibition of chymotrypsin (unknown origin) at 1 uM", "type": "protein assay"}, "[4]": {"biological_target": "Kallikrein-7 (Homo sapiens) (UniProt P49862)", "sequence (P49862 30-253 limits assumed)": "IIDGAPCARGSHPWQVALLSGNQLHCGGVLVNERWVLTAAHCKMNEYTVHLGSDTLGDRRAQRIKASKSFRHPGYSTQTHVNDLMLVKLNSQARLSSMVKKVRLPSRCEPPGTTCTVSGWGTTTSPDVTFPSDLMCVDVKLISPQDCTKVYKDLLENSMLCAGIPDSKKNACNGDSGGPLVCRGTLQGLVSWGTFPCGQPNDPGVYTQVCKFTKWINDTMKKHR", "test": "Inhibition of kallikrein-7 (unknown origin) at 1 uM"}, "[5]": {"biological_target": "T2, Caspase-9 (Homo sapiens) (UniProt P55211)", "T2 sequence (whole entry)": "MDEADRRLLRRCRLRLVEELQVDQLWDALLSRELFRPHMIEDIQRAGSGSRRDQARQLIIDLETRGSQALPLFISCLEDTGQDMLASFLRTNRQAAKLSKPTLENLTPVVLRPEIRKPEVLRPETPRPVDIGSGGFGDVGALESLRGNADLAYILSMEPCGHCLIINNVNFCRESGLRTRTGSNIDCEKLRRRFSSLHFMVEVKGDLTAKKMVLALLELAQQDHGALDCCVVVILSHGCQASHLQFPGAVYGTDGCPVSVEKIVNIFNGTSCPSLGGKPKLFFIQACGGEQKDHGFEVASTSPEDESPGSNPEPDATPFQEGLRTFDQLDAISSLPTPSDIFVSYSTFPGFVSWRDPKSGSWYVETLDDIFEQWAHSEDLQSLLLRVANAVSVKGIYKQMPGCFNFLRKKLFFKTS", "test": "Inhibition of Caspase-9 (unknown origin) at 1 uM"}, "[6]": {"biological_target": "T3, Caspase-6 (Homo sapiens) (UniProt P55212)", "T3 sequence (whole entry)": "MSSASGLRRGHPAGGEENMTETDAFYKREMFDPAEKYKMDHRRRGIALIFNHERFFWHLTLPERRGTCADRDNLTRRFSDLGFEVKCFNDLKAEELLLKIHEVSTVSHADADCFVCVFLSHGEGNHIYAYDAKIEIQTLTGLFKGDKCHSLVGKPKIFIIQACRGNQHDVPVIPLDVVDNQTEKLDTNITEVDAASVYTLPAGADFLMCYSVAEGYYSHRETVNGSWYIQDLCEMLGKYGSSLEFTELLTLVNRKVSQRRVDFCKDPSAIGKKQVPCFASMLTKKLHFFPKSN", "test": "Inhibition of Caspase-6 (unknown origin) at 1 uM"}}, "note": "Activity calls are given as the source filed them. The calls are words filed in the database; no cut-off is given here. Square brackets hold non-standard residues; d marks the D form. Peptide text beside a SMILES is read from it. * marks the point of attachment. hMet = CSCCC[C@H](N)C(=O)O; X1 = CC(C)[C@H](N*)B(O)O", "data": [{"smiles": "CC(C)C[C@H](NC(=O)[C@H](Cc1cc[n+]([O-])cc1)NC(=O)OCc1ccccc1)C(=O)N[C@H](B(O)O)C(C)C", "values": [{"measurement": "IC50", "setting": "[1]", "value": 1540, "unit": "nM"}]}, {"smiles": "CC(C)C[C@H](NC(=O)[C@H](CCCCN)NC(=O)OCc1ccccc1)C(=O)N[C@H](B(O)O)C(C)C", "values": [{"measurement": "IC50", "setting": "[1]", "value": 15300, "unit": "nM"}]}, {"smiles": "CC(C)C[C@H](NC(=O)[C@H](Cc1cccc(Cl)c1)NCCCc1ccccc1)C(=O)N[C@H](B(O)O)C(C)C", "values": [{"measurement": "IC50", "setting": "[1]", "value": 4900, "unit": "nM"}]}, {"smiles": "CC(C)C[C@H](NC(=O)[C@H](Cc1cccc(Cl)c1)NC(=O)NCc1ccccc1)C(=O)N[C@H](B(O)O)C(C)C", "values": [{"measurement": "IC50", "setting": "[1]", "value": 495, "unit": "nM"}]}, {"smiles": "CC(C)C[C@H](NC(=O)[C@H](Cc1cccc(Cl)c1)NC(=O)CCc1ccccc1)C(=O)N[C@H](B(O)O)C(C)C", "values": [{"measurement": "IC50", "setting": "[1]", "value": 104, "unit": "nM"}]}, {"smiles": "CC(C)C[C@H](NC(=O)[C@H](Cc1cccc(Cl)c1)NC(=O)OCc1ccccc1)C(=O)N[C@H](B(O)O)C(C)C", "values": [{"measurement": "Activity", "setting": "[2]", "value": 0, "unit": "%"}, {"measurement": "inhibition", "setting": "[3]", "value": "inactive"}, {"measurement": "IC50", "setting": "[1]", "value": 10, "unit": "nM"}, {"measurement": "inhibition", "setting": "[4]", "value": "inactive"}, {"measurement": "inhibition", "setting": "[5]", "value": "inactive"}, {"measurement": "inhibition", "setting": "[6]", "value": "inactive"}]}, {"smiles": "Cc1cccc(C[C@H](NC(=O)OCc2ccccc2)C(=O)N[C@@H](CC(C)C)C(=O)N[C@H](B(O)O)C(C)C)c1", "values": [{"measurement": "IC50", "setting": "[1]", "value": 45, "unit": "nM"}]}, {"smiles": "CC(C)C[C@H](NC(=O)[C@H](Cc1ccc[n+]([O-])c1)NC(=O)OCc1ccccc1)C(=O)N[C@H](B(O)O)C(C)C", "values": [{"measurement": "IC50", "setting": "[1]", "value": 654, "unit": "nM"}]}, {"smiles": "CC(C)C[C@H](NC(=O)[C@H](Cc1cccc(F)c1)NC(=O)OCc1ccccc1)C(=O)N[C@H](B(O)O)C(C)C", "values": [{"measurement": "IC50", "setting": "[1]", "value": 88, "unit": "nM"}]}, {"smiles": "CC(C)C[C@H](NC(=O)[C@H](Cc1cccc(Cl)c1)NC(=O)C(C)(C)Cc1ccccc1)C(=O)N[C@H](B(O)O)C(C)C", "values": [{"measurement": "IC50", "setting": "[1]", "value": 11, "unit": "nM"}]}, {"smiles": "CC(C)C[C@H](NC(=O)[C@H](Cc1ccccc1)NC(=O)OCc1ccccc1)C(=O)N[C@H](B(O)O)C(C)C", "values": [{"measurement": "IC50", "setting": "[1]", "value": 411, "unit": "nM"}]}, {"smiles": "CC(C)C[C@H](NC(=O)[C@H](Cc1ccc(Cl)cc1)NC(=O)OCc1ccccc1)C(=O)N[C@H](B(O)O)C(C)C", "values": [{"measurement": "IC50", "setting": "[1]", "value": 73, "unit": "nM"}]}, {"smiles": "CC(C)C[C@H](NC(=O)[C@H](Cc1cccc(Cl)c1)NC(=O)C(C)(C)Cc1ccccc1)C(=O)N[C@H](B(O)O)C1CCC1", "values": [{"measurement": "Activity", "setting": "[2]", "value": 0, "unit": "%"}, {"measurement": "inhibition", "setting": "[3]", "value": "inactive"}, {"measurement": "IC50", "setting": "[1]", "value": 13, "unit": "nM"}, {"measurement": "inhibition", "setting": "[4]", "value": "inactive"}, {"measurement": "inhibition", "setting": "[5]", "value": "inactive"}, {"measurement": "inhibition", "setting": "[6]", "value": "inactive"}]}, {"smiles": "CSCCC[C@H](NC(=O)[C@@H]1CCCN1C(=O)[C@@H](N)CC(=O)O)C(=O)N[C@@H](Cc1ccccc1)C(=O)N[C@@H](CCCCN)C(=O)N[C@@H](CC(C)C)C(=O)N[C@H](B(O)O)C(C)C", "note": "(H-DP[hMet]FKL-X1)", "values": [{"measurement": "IC50", "setting": "[1]", "value": 2600, "unit": "nM"}]}, {"smiles": "CCCCC[C@H](NC(=O)OCc1ccccc1)C(=O)N[C@@H](CC(C)C)C(=O)N[C@H](B(O)O)C(C)C", "values": [{"measurement": "IC50", "setting": "[1]", "value": 1920, "unit": "nM"}]}, {"smiles": "CC(C)C[C@H](NC(=O)[C@H](Cc1cccc(Br)c1)NC(=O)OCc1ccccc1)C(=O)N[C@H](B(O)O)C(C)C", "values": [{"measurement": "IC50", "setting": "[1]", "value": 17, "unit": "nM"}]}, {"smiles": "CC(C)C[C@H](NC(=O)[C@H](CC1CCCCC1)NC(=O)OCc1ccccc1)C(=O)N[C@H](B(O)O)C(C)C", "values": [{"measurement": "IC50", "setting": "[1]", "value": 466, "unit": "nM"}]}]}
